Results reported in patent publication EP0918774B9, “ANDROGEN RECEPTOR MODULATOR COMPOUNDS AND METHODS” (LIGAND PHARMACEUTICALS INCORPORATED, priority 1996, dated 1997).

Columns and labels:
[1] = molecular target: T1, PR (Homo sapiens, UniProt P06401); experiment: Co-transfection assay, PR agonist mode; type: cell-based; set-up: expressed in transfected cells; host or cells: CV-1 cells
T1 sequence (P06401 1-933): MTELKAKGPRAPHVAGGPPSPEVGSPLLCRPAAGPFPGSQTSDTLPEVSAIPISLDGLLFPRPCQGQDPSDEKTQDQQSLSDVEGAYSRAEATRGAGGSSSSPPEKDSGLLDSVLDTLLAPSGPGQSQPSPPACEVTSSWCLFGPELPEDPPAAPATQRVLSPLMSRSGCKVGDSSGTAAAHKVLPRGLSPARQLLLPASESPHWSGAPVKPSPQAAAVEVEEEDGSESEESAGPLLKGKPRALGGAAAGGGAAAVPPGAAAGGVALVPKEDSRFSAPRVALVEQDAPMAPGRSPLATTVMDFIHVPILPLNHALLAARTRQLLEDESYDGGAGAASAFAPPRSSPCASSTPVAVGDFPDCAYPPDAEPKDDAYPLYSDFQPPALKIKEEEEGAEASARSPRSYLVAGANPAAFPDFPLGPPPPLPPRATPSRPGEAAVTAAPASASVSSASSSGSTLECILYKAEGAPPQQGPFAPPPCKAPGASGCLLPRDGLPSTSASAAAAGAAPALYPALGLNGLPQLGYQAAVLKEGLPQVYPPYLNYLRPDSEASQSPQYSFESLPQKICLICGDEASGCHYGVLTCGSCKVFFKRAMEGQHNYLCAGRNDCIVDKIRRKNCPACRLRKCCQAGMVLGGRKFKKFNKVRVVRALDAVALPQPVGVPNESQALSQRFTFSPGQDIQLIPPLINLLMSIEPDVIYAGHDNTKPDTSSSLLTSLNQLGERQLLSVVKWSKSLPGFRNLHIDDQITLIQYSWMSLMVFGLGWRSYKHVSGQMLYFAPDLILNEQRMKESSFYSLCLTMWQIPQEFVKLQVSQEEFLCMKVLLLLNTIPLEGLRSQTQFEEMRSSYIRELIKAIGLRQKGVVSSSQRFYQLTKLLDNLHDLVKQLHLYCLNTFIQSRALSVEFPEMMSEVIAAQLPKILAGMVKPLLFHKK
Procedure: (§1) CV-1 cells (African green monkey kidney fibroblasts) were cultured in the presence of Dulbecco's Modified Eagle Medium (DMEM) supplemented with 10% charcoal resinstripped fetal bovine serum then transferred to 96-well microtiter plates one day prior to transfection.
(§2) Three to four replicates were used for each sample.
(§3) After 40 hours, the cells were washed with PBS, lysed with a Triton X-100-based buffer and assayed for LUC and β-Gal activities using a luminometer or spectrophotometer, respectively. For each replicate, the normalized response (NR) was calculated as: LUC response/β-Gal rate where β-Gal rate = β-Gal•1x10^-5/β-Gal incubation time.

[2] = molecular target: T1, PR; experiment: cell-based
[3] = molecular target: T2, ER (Homo sapiens, UniProt P03372); experiment: Co-transfection assay, ER agonist mode; type: cell-based
T2 construct: expressed in transfected cells; host or cells: CV-1 cells
Procedure: as §1, §2, §3

[4] = molecular target: T3, GR (Homo sapiens, UniProt P04150); experiment: cell-based
T3 sequence (P04150 1-777): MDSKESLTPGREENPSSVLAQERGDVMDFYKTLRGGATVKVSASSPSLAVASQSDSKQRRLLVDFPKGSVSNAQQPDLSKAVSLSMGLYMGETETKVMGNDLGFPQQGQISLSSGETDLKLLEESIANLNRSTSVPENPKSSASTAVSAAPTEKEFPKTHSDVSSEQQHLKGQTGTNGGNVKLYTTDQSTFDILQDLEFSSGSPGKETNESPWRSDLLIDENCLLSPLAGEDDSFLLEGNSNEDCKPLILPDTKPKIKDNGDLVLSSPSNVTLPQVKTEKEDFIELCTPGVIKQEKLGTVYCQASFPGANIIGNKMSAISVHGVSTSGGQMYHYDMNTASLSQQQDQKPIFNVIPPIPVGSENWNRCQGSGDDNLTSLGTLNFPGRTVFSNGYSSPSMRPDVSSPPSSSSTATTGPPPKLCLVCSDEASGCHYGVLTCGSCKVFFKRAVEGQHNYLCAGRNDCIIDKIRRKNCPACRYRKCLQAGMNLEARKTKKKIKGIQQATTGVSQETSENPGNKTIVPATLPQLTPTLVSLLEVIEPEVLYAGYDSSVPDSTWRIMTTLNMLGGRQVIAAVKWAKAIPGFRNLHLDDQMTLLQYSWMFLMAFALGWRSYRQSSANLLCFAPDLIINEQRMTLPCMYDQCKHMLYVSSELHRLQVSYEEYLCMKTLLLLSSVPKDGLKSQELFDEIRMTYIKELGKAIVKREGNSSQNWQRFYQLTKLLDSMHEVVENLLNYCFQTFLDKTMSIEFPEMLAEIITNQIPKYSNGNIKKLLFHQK
Procedure: as §1, §2, §3

[5] = molecular target: T2, ER; experiment: Co-transfection assay, ER antagonist mode; type: cell-based
Procedure: as §1, §2, §3

[6] = molecular target: T4, human AR (Homo sapiens, UniProt P10275); experiment: cell-based; type: cell-based
T4 construct: expressed in transfected cells; host or cells: CV-1 cells (African green monkey kidney fibroblasts), transient calcium phosphate transfection
T4 sequence (P10275 1-920): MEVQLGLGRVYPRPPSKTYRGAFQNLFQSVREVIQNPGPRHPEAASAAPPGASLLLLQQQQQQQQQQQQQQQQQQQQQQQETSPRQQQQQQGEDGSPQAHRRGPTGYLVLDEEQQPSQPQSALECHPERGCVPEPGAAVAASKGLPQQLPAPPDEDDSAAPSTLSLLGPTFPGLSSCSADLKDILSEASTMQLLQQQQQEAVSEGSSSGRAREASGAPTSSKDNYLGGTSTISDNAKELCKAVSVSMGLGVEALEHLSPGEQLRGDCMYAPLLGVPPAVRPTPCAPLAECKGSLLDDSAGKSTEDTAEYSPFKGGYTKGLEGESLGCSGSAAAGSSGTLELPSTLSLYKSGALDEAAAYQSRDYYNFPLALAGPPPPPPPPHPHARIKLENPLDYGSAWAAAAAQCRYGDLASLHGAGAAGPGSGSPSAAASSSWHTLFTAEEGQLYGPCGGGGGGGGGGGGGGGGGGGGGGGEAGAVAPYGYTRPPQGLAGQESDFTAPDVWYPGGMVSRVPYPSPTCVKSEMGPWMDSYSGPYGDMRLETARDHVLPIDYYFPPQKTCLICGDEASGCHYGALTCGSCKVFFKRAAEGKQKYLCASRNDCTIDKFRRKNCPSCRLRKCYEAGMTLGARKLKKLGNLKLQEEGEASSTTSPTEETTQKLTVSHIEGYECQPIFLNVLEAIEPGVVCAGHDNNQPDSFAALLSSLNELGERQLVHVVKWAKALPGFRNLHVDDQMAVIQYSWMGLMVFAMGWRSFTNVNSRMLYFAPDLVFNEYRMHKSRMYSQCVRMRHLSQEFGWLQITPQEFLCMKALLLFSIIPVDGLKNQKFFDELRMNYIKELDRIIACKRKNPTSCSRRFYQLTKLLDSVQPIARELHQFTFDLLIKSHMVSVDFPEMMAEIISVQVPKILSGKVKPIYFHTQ
Excerpt: The co-transfection assay provides a method for identifying functional agonists and partial agonists which mimic, or antagonists which inhibit, the effect of native hormones, and quantifying their activity for responsive IR proteins. In this regard, the co-transfection assay mimics an in vivo system in the laboratory. Importantly, activity in the co-transfection assay correlates very well with known in vivo activity, such that the co-transfection assay functions as a qualitative and quantitative predictor of a tested compounds in vivo pharmacology. See, e.g., T. Berger et al. 41 J. Steroid Biochem. Molec.
as §1
The reporter plasmid, MTV-LUC, contains the cDNA for firefly luciferase (LUC) under control of the mouse mammary tumor virus (MTV) long terminal repeat, a conditional promoter containing an androgen response element. See e.g, Berger et al. supra. In addition, pRS-β-Gal, coding for constitutive expression of E. colβ-galactosidase (β-Gal), was included as an internal control for evaluation of transfection efficiency and compound toxicity.
as §2, §3

[7] = molecular target: T4, human AR; experiment: cell-based; type: binding

T2 sequence (P03372 whole entry): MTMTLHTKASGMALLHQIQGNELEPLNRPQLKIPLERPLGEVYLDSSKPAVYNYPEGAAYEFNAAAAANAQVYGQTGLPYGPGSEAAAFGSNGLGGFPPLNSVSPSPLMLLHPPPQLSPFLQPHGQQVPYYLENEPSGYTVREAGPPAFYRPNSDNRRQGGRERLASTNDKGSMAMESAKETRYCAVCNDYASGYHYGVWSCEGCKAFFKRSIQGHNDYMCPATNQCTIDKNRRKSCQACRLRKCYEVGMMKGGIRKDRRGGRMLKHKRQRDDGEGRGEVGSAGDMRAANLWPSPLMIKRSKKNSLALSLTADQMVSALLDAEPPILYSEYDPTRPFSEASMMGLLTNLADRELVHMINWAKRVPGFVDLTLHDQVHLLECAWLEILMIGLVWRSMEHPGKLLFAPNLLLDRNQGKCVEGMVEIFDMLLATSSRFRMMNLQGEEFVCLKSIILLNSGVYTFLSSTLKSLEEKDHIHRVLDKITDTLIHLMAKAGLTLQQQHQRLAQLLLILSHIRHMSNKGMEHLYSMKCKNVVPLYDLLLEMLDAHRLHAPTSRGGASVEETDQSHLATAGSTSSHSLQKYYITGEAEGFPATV

C[C@]12CCC(=O)C[C@@H]1CC[C@@H]1[C@@H]2CC[C@]2(C)[C@@H](O)CC[C@@H]12 [DHT, dihydrotestosterone, reference compound]
EC50 [1]: > 10 µM | IC50 [2]: 1.8 µM

Cn1c(=O)cc(C(F)(F)F)c2cc3c(cc21)N1CCCC1(C)CC3 (racemic) [Compound 103, (R/S)-6,7,7a,11-Tetrahydro-1,7a-dimethyl-4-trifluoromethyl-2-pyridono[5,6-g]pyrrolidino[1,2-a]quinoline]
EC50 [1]: > 10 µM | EC50 [3]: > 10 µM | IC50 [4]: > 10 µM | IC50 [5]: > 10 µM

CC1(C)CCc2cc3c(C(F)(F)F)c(F)c(=O)[nH]c3cc2N1 [Compound 105, 7-Fluoro-1,2,3,4-tetrahydro-2,2-dimethyl-6-trifluoromethyl-8-pyridono[5,6-g]quinoline]
EC50 [1]: > 10 µM | AR Antagonist CV-1 Cells Efficacy (%) ([6]; % of maximal inhibition, fixed DHT at EC50, na = not active): 31% | AR agonist/antagonist profile (in words) ([6]; co-transfection assay, summary of Tables 1-2): mixed AR agonists/antagonists | AR Agonist CV-1 Cells Efficacy (%) ([6]; percent maximal response relative to reference agonist DHT, na = not active): 48% | EC50 [3]: > 10 µM | Ki [7]: 0.026 µM | IC50 [4]: > 10 µM | IC50 [5]: 0.034 µM
